According to PubChem BioAssay (NCI):
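GI50 is the concentration that inhibits growth by half. TGI: concentration producing complete growth inhibition.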

Columns and labels:
Test in all cases: DTP human tumour cell line panel, 384-well format
786-0 renal = test system: 786-0 renal
A498 renal = test system: A498 renal
A549 NSCLC = test system: A549 NSCLC
ACHN renal = test system: ACHN renal
BT-549 breast = test system: BT-549 breast
CAKI-1 renal = test system: CAKI-1 renal
CCRF-CEM leukemia = test system: CCRF-CEM leukemia
COLO 205 colon = test system: COLO 205 colon
DU-145 prostate = test system: DU-145 prostate
HCC-2998 colon = test system: HCC-2998 colon
HCT-116 colon = test system: HCT-116 colon
HCT-15 colon = test system: HCT-15 colon
HL-60(TB) leukemia = test system: HL-60(TB) leukemia
HOP-62 NSCLC = test system: HOP-62 NSCLC
HOP-92 NSCLC = test system: HOP-92 NSCLC
HT29 colon = test system: HT29 colon
IGROV1 ovarian = test system: IGROV1 ovarian
K-562 leukemia = test system: K-562 leukemia
KM12 colon = test system: KM12 colon
LOX IMVI melanoma = test system: LOX IMVI melanoma
M14 melanoma = test system: M14 melanoma
MALME-3M melanoma = test system: MALME-3M melanoma
MCF7 breast = test system: MCF7 breast
MDA-MB-231 breast = test system: MDA-MB-231 breast
MDA-MB-435 melanoma = test system: MDA-MB-435 melanoma
MDA-MB-468 breast = test system: MDA-MB-468 breast
MOLT-4 leukemia = test system: MOLT-4 leukemia
NCI-H226 lung = test system: NCI-H226 lung
NCI-H23 lung = test system: NCI-H23 lung
NCI-H322M lung = test system: NCI-H322M lung
NCI-H460 NSCLC = test system: NCI-H460 NSCLC
NCI-H522 lung = test system: NCI-H522 lung
NCI/ADR-RES ovarian = test system: NCI/ADR-RES ovarian
OVCAR-3 ovarian = test system: OVCAR-3 ovarian
OVCAR-4 ovarian = test system: OVCAR-4 ovarian
OVCAR-5 ovarian = test system: OVCAR-5 ovarian
OVCAR-8 ovarian = test system: OVCAR-8 ovarian
PC-3 prostate = test system: PC-3 prostate
RPMI-8226 leukemia = test system: RPMI-8226 leukemia
RXF 393 renal = test system: RXF 393 renal
SF-268 CNS = test system: SF-268 CNS
SF-295 CNS = test system: SF-295 CNS
SF-539 CNS = test system: SF-539 CNS
SK-MEL-2 melanoma = test system: SK-MEL-2 melanoma
SK-MEL-28 melanoma = test system: SK-MEL-28 melanoma
SK-MEL-5 melanoma = test system: SK-MEL-5 melanoma
SK-OV-3 ovarian = test system: SK-OV-3 ovarian
SN12C renal = test system: SN12C renal
SNB-19 CNS = test system: SNB-19 CNS
SR leukemia = test system: SR leukemia
SW-620 colon = test system: SW-620 colon
T-47D breast = test system: T-47D breast
TK-10 renal = test system: TK-10 renal
U251 glioblastoma = test system: U251 glioblastoma
UACC-257 melanoma = test system: UACC-257 melanoma
UACC-62 melanoma = test system: UACC-62 melanoma
UO-31 renal = test system: UO-31 renal

**Q.** Which results are given for `COc1cc(F)cc([C@@H](CO)NC(=O)[C@@H](C)N2Cc3ccc(-c4nc(NC5CCOCC5)ncc4Cl)cc3C2=O)c1`?
**A.** GI50 ([…]-0 renal): 11.3 µM; TGI (786-0 renal): 34.1 µM; GI50 (A498 renal): 10.4 µM; TGI (A498 renal): 36.1 µM; GI50 (A549 NSCLC): 45.7 nM; TGI (A549 NSCLC): 17.3 µM; GI50 (ACHN renal): 5.8 µM; TGI (ACHN renal): 60.8 µM; GI50 (BT-549 breast): 11.4 µM; TGI (BT-549 breast): 23.8 µM; GI50 (CAKI-1 renal): 96 nM; TGI (CAKI-1 renal): 33.3 µM; GI50 (CCRF-CEM leukemia): 11.7 µM; TGI (CCRF-CEM leukemia): 24.7 µM; GI50 (COLO 205 colon): < 10 nM; TGI (COLO 205 colon): 24.6 nM; GI50 (DU-145 prostate): 11.3 µM; TGI (DU-145 prostate): 38.7 µM; GI50 (HCC-2998 colon): < 10 nM; TGI (HCC-2998 colon): 40.8 nM; GI50 (HCT-116 colon): 13.7 nM; TGI (HCT-116 colon): 201 nM; GI50 (HCT-15 colon): 14.4 µM; TGI (HCT-15 colon): 75.6 µM; GI50 (HL-60(TB) leukemia): < 10 nM; TGI (HL-60(TB) leukemia): 42.9 nM; GI50 (HOP-62 NSCLC): 218 nM; TGI (HOP-62 NSCLC): 25.9 µM; GI50 (HOP-92 NSCLC): 24.9 nM; TGI (HOP-92 NSCLC): 162 nM; GI50 (HT29 colon): < 10 nM; TGI (HT29 colon): 13.4 µM; GI50 (IGROV1 ovarian): 145 nM; TGI (IGROV1 ovarian): 12.6 µM; GI50 (K-562 leukemia): 409 nM; TGI (K-562 leukemia): 19 µM; GI50 (KM12 colon): 46.5 nM; TGI (KM12 colon): 16.4 µM; GI50 (LOX IMVI melanoma): 13.4 nM; TGI (LOX IMVI melanoma): 67.1 nM; GI50 (M14 melanoma): < 10 nM; TGI (M14 melanoma): 13.8 nM; GI50 (MALME-3M melanoma): < 10 nM; TGI (MALME-3M melanoma): < 10 nM; GI50 (MCF7 breast): 16.5 µM; TGI (MCF7 breast): 31.9 µM; GI50 (MDA-MB-231 breast): 85.4 nM; TGI (MDA-MB-231 breast): 19.1 µM; GI50 (MDA-MB-435 melanoma): 10.3 nM; TGI (MDA-MB-435 melanoma): 20.1 µM; GI50 (MDA-MB-468 breast): 325 nM; TGI (MDA-MB-468 breast): 10 µM; GI50 (MOLT-4 leukemia): 7.8 µM; TGI (MOLT-4 leukemia): 20.2 µM; GI50 (NCI-H226 lung): 214 nM; TGI (NCI-H226 lung): 16.1 µM; GI50 (NCI-H23 lung): < 10 nM; TGI (NCI-H23 lung): 22.1 nM; GI50 (NCI-H322M lung): 72.2 nM; TGI (NCI-H322M lung): 25.8 µM; GI50 (NCI-H460 NSCLC): 1120 nM; TGI (NCI-H460 NSCLC): 31.3 µM; GI50 (NCI-H522 lung): 11.3 µM; TGI (NCI-H522 lung): 27.4 µM; GI50 (NCI/ADR-RES ovarian): 14.7 µM; TGI (NCI/ADR-RES ovarian): 31.9 µM; GI50 (OVCAR-3 ovarian): 13.9 µM; TGI (OVCAR-3 ovarian): 33.3 µM; GI50 (OVCAR-4 ovarian): 13.2 µM; TGI (OVCAR-4 ovarian): 39.3 µM; GI50 (OVCAR-5 ovarian): 10.2 nM; TGI (OVCAR-5 ovarian): > 100 µM; GI50 (OVCAR-8 ovarian): 12.4 µM; TGI (OVCAR-8 ovarian): 28.2 µM; GI50 (PC-3 prostate): 18.3 µM; TGI (PC-3 prostate): 36.2 µM; GI50 (RPMI-8226 leukemia): 224 nM; TGI (RPMI-8226 leukemia): 5.09 µM; GI50 (RXF 393 renal): 441 nM; TGI (RXF 393 renal): 16.9 µM; GI50 (SF-268 CNS): 25.5 µM; TGI (SF-268 CNS): 79.5 µM; GI50 (SF-295 CNS): 15.2 µM; TGI (SF-295 CNS): 43 µM; GI50 (SF-539 CNS): 382 nM; TGI (SF-539 CNS): 15.6 µM; GI50 (SK-MEL-2 melanoma): < 10 nM; TGI (SK-MEL-2 melanoma): 31.2 nM; GI50 (SK-MEL-28 melanoma): < 10 nM; TGI (SK-MEL-28 melanoma): < 10 nM; GI50 (SK-MEL-5 melanoma): 18.1 nM; TGI (SK-MEL-5 melanoma): 12.1 µM; GI50 (SK-OV-3 ovarian): 6.75 µM; TGI (SK-OV-3 ovarian): 63.2 µM; GI50 (SN12C renal): 16.6 µM; TGI (SN12C renal): 85.4 µM; GI50 (SNB-19 CNS): 11 µM; TGI (SNB-19 CNS): > 100 µM; GI50 (SR leukemia): 499 nM; TGI (SR leukemia): 14.7 µM; GI50 (SW-620 colon): 13.2 nM; TGI (SW-620 colon): 19.3 µM; GI50 (T-47D breast): 11.7 µM; TGI (T-47D breast): 24.1 µM; GI50 (TK-10 renal): 821 nM; TGI (TK-10 renal): 40.3 µM; GI50 (U251 glioblastoma): 460 nM; TGI (U251 glioblastoma): 42.7 µM; GI50 (UACC-257 melanoma): < 10 nM; TGI (UACC-257 melanoma): 20.9 nM; GI50 (UACC-62 melanoma): < 10 nM; TGI (UACC-62 melanoma): 42.7 nM; GI50 (UO-31 renal): 578 nM; TGI (UO-31 renal): 20.1 µM
